In US20150010474A1, “Compounds And Methods For Selective Imaging And/Or Ablation” (Auckland Uniservices Limited, priority 2011, published 2015):

Experiments:
[1] = tested on: NfsB (E.s); test: Initial rate of metabolism by purified recombinant bacterial nitroreductase (NADPH consumption, UV/Vis); type: biochemical, Enterobacter (Chronobacter) sakazakii; conditions: compound 500 μM, NADPH 200 μM, 10 mM Tris-Cl pH 7.0; μmol NADPH consumed per mg enzyme per minute
Experimental: The relative initial rates of reductive metabolism of the nitro moiety of test compounds by bacterial nitroreductase's can be measured experimentally by incubating the test compound at near-saturating concentration (determined empirically) with the purified recombinant bacterial nitroreductase enzymes in the presence of NADPH co-factor. UV/Vis spectroscopy is used to measure consumption of the co-factor, indicating metabolism of the test compound by the nitroreductase.
Compounds 67, 93 and 97 (500 μM) were added to NADPH (200 μM) in 10 mM Tris-Cl pH 7.0. Reactions were initiated by enzyme addition (between 5 and 20 μg per reaction). Rates represent μmol of NADPH consumed per mg enzyme added per minute.

[2] = tested on: E. coli SOS (DNA damage repair) response; test: SOS assay (β-galactosidase activity) in NTR over-expression library; type: cell-based, Escherichia coli; conditions: 4 h challenge with 8 μM compound 67
Experimental: FIG. 2 illustrates the metabolism of compound 67 by members of the 58-membered NTR over-expression library as measured by (A) Growth Inhibition assay and (B) SOS assay. (A) Growth Inhibition assay. Turbidity (OD600) of NTR over-expressing cell cultures was recorded directly before and after 4 h incubation with 400 μM compound 67. Percentage Growth Inhibition represents the decrease in OD600 of challenged cells relative to unchallenged control cells for each strain post-incubation (i.e. 100−[100×OD600 of challenged cells/OD600 of unchallenged cells]). Data are the average of 2 independent assays and the error bars indicate ±1 standard deviation. Labelled bars indicate the NfsA and NfsB family members within the NTR library. (B) SOS assay. […] The data presented is the SOS response, measured by β-galactosidase activity (in Miller units), of NTR over-expressing E. coli SOS-R2 after 4 h challenge with 8 μM compound 67. Full details of assay protocol and calculations are as described in G A Prosser, J N Copp, S P Syddall, E M Williams, J B Smaill, W R Wilson, A V Patterson and D F Ackerley. 2010. Discovery and evaluation of Escherichia coli nitroreductases that activate the anti-cancer prodrug CB1954. Biochemical Pharmacology 79: 678-687. Data are the average of 2 independent assays and the error bars indicate ±1 standard deviation. […]

## Cc1ncc([N+](=O)[O-])n1CC(=O)NCC(F)(F)C(F)(F)F [Compound 67, 2-(2-methyl-5-nitro-1H-imidazol-1-yl)-N-(2,2,3,3,3-pentafluoropropyl)acetamide]
[1]
  Rate of metabolism by NfsB (E.s): 2.4 µmol/min/mg
[2]
  SOS response upon activation: demonstrates an ability to evoke the E. coli SOS (DNA damage repair) response upon activation
other
  melting point: 149 to 151 °C
